# Measured values from PMC12765074, “Mechanistic insights into enterocin C targeting the undecaprenyl phosphate recycling protein BacA” (The Journal of Biological Chemistry, 2025).
# Values joined by “and” are separate entries in the source; they are usually repeats but may differ in a detail not shown here. Identical values can stand only once. Like-named read-outs stand apart in the source and are kept apart here.
# Tests used:
# [1] = tested on: E. faecalis (V583-derivative strain, WT); format: cell-based, Enterococcus faecalis; settings: 6 μl droplets on a lawn of E. faecalis, BHI 0.75% agar, overnight; representative of three independent experiments
# [2] = tested on: E. faecalis cells; assay: growth prevention in liquid culture; format: cell-based, Enterococcus faecalis
# [3] = tested on: EfΔbacA cells (pIL252 empty vector); assay: spot assay on bacA-deleted strain; format: cell-based, Enterococcus faecalis; settings: spot on BHI agar
# [4] = tested on: E. faecalis EfΔbacA cells expressing catalytically inactive variants of BacAef (E20A, S26A, R172A); assay: spot-on-lawn assay, catalytic site mutants; format: cell-based, Enterococcus faecalis
# [5] = molecular target: T1, BacAef (Enterococcus faecalis, UniProt A0ACD6TE02); format: biochemical; settings: DDM micelles; 20 mM Tris-HCl pH 7.4, 400 μM CaCl2, 150 mM NaCl, 0.1% DDM, 50 μM [14C]C55-PP, 10 min, 37 °C, TLC; EntC vs EntC1 p-value = 0.0007; read-out: IC50, BacAef C55-PP phosphatase activity
# [6] = molecular target: T1, BacAef; assay: UppS-coupled C55-PP phosphatase assay in liposomes, BacAef; format: biochemical; settings: DOPC:DOPG:DOPE liposomes, 20 mM HEPES pH 7.5, 37 °C, 10 min, TLC
# Description: (§2) The reconstitution of BacA and PgpB in liposomes was achieved through adapted protocols previously described ([48]). Liposomes were prepared by rehydrating a lipid film of DOPC: DOPG: DOPE (3 mg: 0.75 mg: 1.25 mg) after 4 h of desiccation by adding 1 ml of buffer (20 mM HEPES, pH 7.5, 50 mM NaCl, 15% glycerol). […] The lipid suspension underwent 10 freeze-thaw cycles in liquid nitrogen and was extruded through a 100 nm polycarbonate membrane (Millipore). Protein reconstitution was performed by destabilizing the liposomes with 5.5 mM Triton X-100 for 15 min. The protein was added at a final concentration of 15 μg/ml and the mixture was incubated at 4 °C for 15 min.
# (§3) The liposomes were used to measure the C55-PP phosphatase activity of BacA in a membrane environment as follows. For each kinetic assay, 5 μl of a reaction mixture containing 20 μM C15-PP, 20 μM [^14C]C5-PP, 180 μM C5-PP in 20 mM HEPES, pH 7.5, 50 mM NaCl, and 15% glycerol were mixed with 5 μl of protein-free liposomes (as a control) or BacA-containing liposomes. The mixture was then supplemented with UppS at a final concentration of 0.2 mg/ml to initiate the enzymatic synthesis of C55-PP. The EntC peptides were added at various concentrations from a water solution. […] Substrates and products were separated and quantified by thin-layer chromatography as previously described for C55-PP phosphatase assay in detergent.
# [7] = tested on: PgpB-liposomes; assay: proteoliposome permeabilisation assay (BCECF), PgpB-liposomes; format: biochemical, Escherichia coli; settings: EntC
# [8] = molecular target: T1, BacAef; assay: DSS crosslinking; format: binding; settings: BacAef and peptide 17 μM each, DSS 100- or 1000-fold excess, 30 min, 4 °C
# Description: Crosslinking experiments were performed using the amine-reactive, membrane-permeable, and non-cleavable crosslinker disuccinimidyl suberate (DSS) purchased from Sigma. EntC peptides and BacA protein were mixed at equimolar concentrations (17 μM) in buffer D in the presence of an excess of DSS crosslinker (1000-fold or 100-fold) in a final reaction volume of 20 μl. The reaction was incubated for 30 min at 4°C, and any unreacted DSS was quenched with 50 mM Tris-HCl. After separation on a 12% acrylamide gel, proteins were electrotransferred onto polyvinylidene difluoride (PVDF) membrane, and BacA was detected using peroxidase-coupled anti-His tag antibody (Penta-His HRP conjugate from Qiagen, RRID: AB_3699318) by chemiluminescence detection (Western Lightning Plus-ECL, PerkinElmer) using the ChemiDoc MP system (Bio-Rad).
# [9] = molecular target: BacAef E20A (Enterococcus faecalis, UniProt A0ACD6TE02, E32A); assay: ITC, BacAef E20A; format: binding; settings: 20 °C
# Description: (§1) The experiments were carried out at 20 °C.
# [10] = molecular target: BacAef S26A (Enterococcus faecalis, UniProt A0ACD6TE02, S38A); assay: ITC, BacAef S26A; format: binding; settings: 20 °C
# Description: as §1
# [11] = molecular target: BacAef R172A (Enterococcus faecalis, UniProt A0ACD6TE02, R184A); assay: ITC, BacAef R172A; format: binding; settings: 20 °C
# Description: as §1
# [12] = molecular target: BacAef K209A (Enterococcus faecalis, UniProt A0ACD6TE02, K221A); assay: ITC, BacAef K209A; format: binding; settings: 20 °C
# Description: as §1
# [13] = molecular target: BacAef K209A D110A D106A; assay: ITC, BacAef K209A D110A D106A; format: binding, Enterococcus faecalis; settings: 20 °C, 400 μM into [BacAef K209A D110A D106A] 33 μM, pH 7.4, 0.1% DDM, at least triplicate
# Description: as §1
# [14] = molecular target: T1, BacAef; format: binding; settings: DSC, BacAef 33 μM + peptides 66 μM, 60 °C/h, representative of triplicate
# Description: Thermal stability of BacA protein in different mixtures of peptides was performed by DSC on a MicroCal model VP-DSC (Malvern Panalytical, Malvern, UK). BacA (33 μM) was mixed with different mixtures of peptides at twice the BacA concentration (i.e. 66 μM). Each measurement was preceded by a baseline scan with the standard buffer. Scans were performed at 1 K/min (60 °C/h) temperature ramp between 30 °C and 100 °C. The heat capacity of the buffer was subtracted from that of the protein sample before analysis. The thermodynamic parameters were determined by fitting the data to the following equation: ΔCp(T)=Kd(T)ΔHcalΔHvH/[1+Kd(T)]^2RT^2 where Kd is the equilibrium constant for a two-state process, ΔHvH the enthalpy calculated based on a two-state process and ΔHcal the measured enthalpy.
# [15] = tested on: E. faecalis EfΔbacA cells expressing BacAef R172A; assay: survival test; format: cell-based, Enterococcus faecalis; settings: 0.5 μM EntC, 30 min, 37 °C, p ≤ 0.0001, three experiments
# [16] = tested on: E. faecalis EfΔbacA cells expressing BacAef K209A; assay: survival test; format: cell-based, Enterococcus faecalis; settings: 0.5 μM EntC, 30 min, 37 °C, p ≤ 0.0001, three experiments
# [17] = molecular target: T2, BacAec (Escherichia coli, UniProt P60932); settings: highest concentration tested 100 μM
# Description: as §2, §3
# [18] = molecular target: T2, BacAec; settings: titration of EntC into BacAec
# Description: ITC experiments were performed with an ITC200 isothermal titration calorimeter from MicroCal (Malvern Panalytical, Malvern, UK). The experiments were carried out at 20 °C. The protein concentration in the microcalorimeter cell (0.2 ml) was 33 μM. Nineteen 2-μl injections of peptides at 400 μM were performed at intervals of 240 s while stirring at 500 rpm. To limit buffer mismatching effect between the cell and the syringe, and the heat-of-dilution effect for having glycerol in the protein solution, the latter were extensively dialyzed, prior to the ITC measurement, in a buffer containing 20 mM Tris-HCl pH 7.4, 200 mM NaCl, 0.1% DDM, to remove glycerol. Then, the dialysis buffer was used to dilute the EntC peptides to further limit buffer mismatching. The experimental data were fitted to theoretical titration curves with the software supplied by MicroCal (ORIGIN). This software uses the relationship between the heat generated by each injection and ΔH (enthalpy change in kcal/mol), Ka (the association binding constant in M^−1), n (the number of binding sites), total protein concentration and free and total ligand concentrations.
# [19] = tested on: E. faecalis; settings: ref [17]; cited from earlier work
# T2 sequence (P60932 whole entry): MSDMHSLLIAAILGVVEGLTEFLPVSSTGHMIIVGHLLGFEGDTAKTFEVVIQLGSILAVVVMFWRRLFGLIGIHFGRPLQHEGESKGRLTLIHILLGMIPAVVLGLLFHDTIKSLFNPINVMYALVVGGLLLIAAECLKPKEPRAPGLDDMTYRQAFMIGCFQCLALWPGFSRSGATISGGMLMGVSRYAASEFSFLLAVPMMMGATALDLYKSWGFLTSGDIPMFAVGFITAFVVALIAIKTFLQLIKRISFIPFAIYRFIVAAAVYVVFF
substance,measurement,setting,value
Enterocin C [EntC],"antibacterial activity (spot-on-lawn), E. faecalis",[1],E. faecalis was only susceptible to EntC
same,concentration required to prevent the growth of E. faecalis cells,[2]; BHI,100 nM
same,concentration required to prevent the growth of E. faecalis cells,[2]; M17,50 nM
same,concentration required to prevent the growth of E. faecalis cells,[2]; MRS,2 nM
same,susceptibility of EfΔbacA strain,[3],full resistance
same,susceptibility of EfΔbacA expressing catalytic site mutant alleles,[4],"restored with a plasmid expressing wild-type bacAef or any of the three catalytic site mutant alleles, although a slight decrease of the susceptibility was observed with R172A variant"
same,IC50,[5],400 ± 100 nM
same,IC50,[6],1200 ± 100 nM
same,membrane permeabilization of PgpB-liposomes,[7],no permeabilization effect
same,"crosslinked complex band with BacAef (SDS-PAGE, western blot)",[8],two faint bands appeared above the BacA monomer
same,n,[9]; 400 μM into [BacAef E20A] 33 μM,0.69 ± 0.01
same,Kd,"[9]; 400 μM into [BacAef E20A] 33 μM, pH 7.4, 0.1% DDM, at least triplicate",190 ± 40 nM
same,-TΔS,[9]; into [BacAef E20A],13.0 kcal/mol
same,ΔG,[9]; into [BacAef E20A],-9 kcal/mol
same,ΔH,[9]; into [BacAef E20A],-22.0 kcal/mol
same,n,[10]; 400 μM into [BacAef S26A] 33 μM,0.80 ± 0.02
same,Kd,"[10]; 400 μM into [BacAef S26A] 33 μM, pH 7.4, 0.1% DDM, at least triplicate",439 ± 125 nM
same,-TΔS,[10]; into [BacAef S26A],8.5 kcal/mol
same,ΔG,[10]; into [BacAef S26A],-8.5 kcal/mol
same,ΔH,[10]; into [BacAef S26A],-17.0 kcal/mol
same,n,[11]; 400 μM into [BacAef R172A] 33 μM,0.30 ± 0.03
same,Kd,"[11]; 400 μM into [BacAef R172A] 33 μM, pH 7.4, 0.1% DDM, at least triplicate",1610 ± 650 nM
same,-TΔS,[11]; into [BacAef R172A],3.6 kcal/mol
same,ΔG,[11]; into [BacAef R172A],-7.8 kcal/mol
same,ΔH,[11]; into [BacAef R172A],-11.4 kcal/mol
same,n,[12]; 400 μM into [BacAef K209A] 33 μM,0.46 ± 0.02
same,Kd,"[12]; 400 μM into [BacAef K209A] 33 μM, pH 7.4, 0.1% DDM, at least triplicate",1840 ± 335 nM
same,-TΔS,[12]; into [BacAef K209A],0.1 kcal/mol
same,ΔH,[12]; into [BacAef K209A],-8.3 kcal/mol
same,KD,[13],No binding
same,melting temperature (Tm) of BacAef,"[14]; 30-100 °C, Tris-HCl pH 7.5, 0.1% DDM, BacAef alone 66.3 °C",83.8 °C
same,enthalpy of denaturation (ΔH) of BacAef,[14]; BacAef alone 26.7 kcal/mol,83.7 kcal/mol
same,% of survival,[15],7.8% and 7.8 ± 0.8 ^d %
same,% of survival,[16],11% and 11 ± 1.0 ^d %
same,inhibition of BacAec in liposomes,[17],no inhibitory effect
same,binding to BacAec (ITC),[18],no binding
same,activity against E. faecalis,[19],active against the opportunistic pathogen E. faecalis
